According to patent US9624215B2, “Amine derivative or salt thereof” (TOYAMA CHEMICAL CO., LTD., priority 2012, dated 2017):
pIC50: −log10 of the molar value.

Tests used:
[1] = test system: TNFα production in LPS-stimulated Raw264.7 cells; experiment: TNFα production inhibition test; type: cell-based; conditions: Mus musculus, test compound 1 μmol/L, LPS 1 μg/mL, 16 hours, ELISA, read-out: Inhibition rate of TNFα production
Protocol: 7×10^4 mouse macrophage-derived cell line Raw264.7 cells were suspended in 100 μL of RPMI1640 medium containing 10% fetal bovine serum, plated in a 96-well plate and incubated overnight. The culture supernatant was removed and the test compound diluted in RPMI1640 medium containing 1% fetal bovine serum (final concentration: 1 μmol/L) was added. One hour after the addition, LPS (B4:0111) (Sigma-Aldrich, L2630) was added to a final concentration of 1 μg/mL. 16 hours after the stimulation, the culture supernatant was collected and the amount of TNFα produced in the culture supernatant was determined using ELISA kit (R&D Systems, MTA00B).
The inhibition rate was calculated from the following formula. Inhibition rate (%)=100−(amount of TNFα produced in the presence of test compound/amount of TNFα produced in the absence of test compound)×100

[2] = test system: normal human neonatal foreskin epidermal keratinocytes (NHEK-F); experiment: Cell proliferation inhibition test; type: cell-based; conditions: Keratinocyte, 72 h, NHEK-F cells, three days incubation, ATPlite or CellTiterGlo, read-out: IC50 (concentration of the compound at which the cell count is reduced by 50%)
In short: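 IC50 is the compound level halving cell count relative to untreated wells, with counts from ATP-based luminescence (ATPlite or CellTiterGlo). Readout followed 3 days of compound exposure of overnight-attached neonatal foreskin keratinocytes (2×10^3/well, Humedia-EG2 medium).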

O=C(O)c1cc(C2CC2)ccc1Nc1ccc2c(c1)CC(=O)N2Cc1ccccc1 [Example 107, 2-((1-benzyl-2-oxoindolin-5-yl)amino)-5-cyclopropylbenzoic acid]
inhibition at 1 µM [1]: ≥ 50%
pIC50 [2]: 7.00 to 8.00

O=C(O)c1cc(C2CC2)ccc1Nc1cnc2c(ccn2Cc2ccccc2)c1 [Example 27, 2-((1-benzyl-1H-pyrrolo(2,3-b)pyridin-5-yl)amino)-5-cyclopropylbenzoic acid]
inhibition at 1 µM [1]: ≥ 50%
pIC50 [2]: ≥ 8.00

O=C(O)c1cc(Cl)ccc1Nc1ccc2c(cnn2Cc2ccccc2)c1 [Example 21, 2-((1-benzyl-1H-indazol-5-yl)amino)-5-chlorobenzoic acid]
inhibition at 1 µM [1]: ≥ 50%
pIC50 [2]: ≥ 8.00

O=C(O)c1cc(Cl)ccc1Nc1ccc2c(ccn2-c2ccccc2)c1 [Example 269, 5-chloro-2-((1-phenyl-1H-indol-5-yl)amino)benzoic acid]
inhibition at 1 µM [1]: ≥ 50%
pIC50 [2]: ≥ 8.00

O=C(O)c1cc(Cl)ccc1Nc1ccc2c(ccn2-c2cccc(C(F)(F)F)c2)c1 [Example 333, 5-chloro-2-((1-(3-(trifluoromethyl)phenyl)-1H-indol-5-yl)amino)benzoic acid]
inhibition at 1 µM [1]: ≥ 50%
pIC50 [2]: ≥ 8.00

CC(C)(C)c1cc2cc(Nc3ccc(C4CC4)cc3C(=O)O)ccc2[nH]1 [Example 110, 2-((2-(tert-butyl)-1H-indol-5-yl)amino)-5-cyclopropylbenzoic acid]
inhibition at 1 µM [1]: ≥ 50%
pIC50 [2]: 7.00 to 8.00

O=C(O)c1cc(Cl)cnc1Nc1ccc2c(cnn2Cc2ccccc2)c1 [Example 354, 2-((1-benzyl-1H-indazol-5-yl)amino)-5-chloronicotinic acid]
inhibition at 1 µM [1]: ≥ 50%
pIC50 [2]: 7.00 to 8.00

O=C(O)c1cc(Cl)ccc1Nc1ccc2c(ccn2Cc2cccc(N3CCOCC3)c2)c1 [Example 14, 5-chloro-2-((1-(3-morpholinobenzyl)-1H-indol-5-yl)amino)benzoic acid]
inhibition at 1 µM [1]: ≥ 50%
pIC50 [2]: ≥ 8.00

O=C(O)c1cc(C2CC2)ccc1Nc1ccc2c(c1)n(CC1CC1)c(=O)n2-c1ccccc1 [Example 82, 5-cyclopropyl-2-((3-(cyclopropylmethyl)-2-oxo-1-phenyl-2,3-dihydro-1H-benzo[d]imidazol-5-yl)amino)benzoic acid]
inhibition at 1 µM [1]: ≥ 50%
pIC50 [2]: 7.00 to 8.00

O=C(O)c1cc(C2CC2)ccc1Nc1ccc2c(ccn2-c2cccnc2)c1 [Example 339, 5-cyclopropyl-2-((1-(pyridin-3-yl)-1H-indol-5-yl)amino)benzoic acid]
inhibition at 1 µM [1]: ≥ 50%
pIC50 [2]: ≥ 8.00

O=C(O)c1cc(Cl)cnc1Nc1ccc2c(ccn2Cc2cccc(OC(F)(F)F)c2)c1 [Example 361, 5-chloro-2-((1-(3-(trifluoromethoxy)benzyl)-1H-indol-5-yl)amino)nicotinic acid]
inhibition at 1 µM [1]: ≥ 50%
pIC50 [2]: 7.00 to 8.00

O=C(O)c1cc(C2CC2)ccc1Nc1ccc2c(ccn2CC2CC2)c1 [Example 104, 5-cyclopropyl-2-((1-(cyclopropylmethyl)-1H-indol-5-yl)amino)benzoic acid]
inhibition at 1 µM [1]: ≥ 50%
pIC50 [2]: ≥ 8.00

O=C(O)c1cc(Cl)ccc1Nc1ccc2c(ccn2Cc2cccc(O)c2)c1 [Example 17, 5-chloro-2-((1-(3-hydroxybenzyl)-1H-indol-5-yl)amino)benzoic acid]
inhibition at 1 µM [1]: ≥ 50%
pIC50 [2]: ≥ 8.00

O=C(O)c1cc(C2CC2)ccc1Nc1ccc2c(ccn2-c2ccc(C(F)(F)F)cc2)c1 [Example 375, 5-cyclopropyl-2-((1-(4-(trifluoromethyl)phenyl)-1H-indol-5-yl)amino)benzoic acid]
inhibition at 1 µM [1]: ≥ 50%
pIC50 [2]: ≥ 8.00

O=C(O)c1cc(Cl)ccc1Nc1ccc2c(ccn2Cc2cccc(OCCO)c2)c1 [Example 300, 5-chloro-2-((1-(3-(2-hydroxyethoxy)benzyl)-1H-indol-5-yl)amino)benzoic acid]
inhibition at 1 µM [1]: ≥ 50%
pIC50 [2]: 7.00 to 8.00

O=C(O)c1cc(Cl)ccc1Nc1ccc2c(ccn2C2CC2)c1 [Example 98, 5-chloro-2-((1-(cyclopropyl)-1H-indol-5-yl)amino)benzoic acid]
inhibition at 1 µM [1]: ≥ 50%
pIC50 [2]: 7.00 to 8.00

O=C(O)c1cc(Cl)ccc1Nc1ccc2c(ccn2-c2ccccc2C(F)(F)F)c1 [Example 337, 5-chloro-2-((1-(2-(trifluoromethyl)phenyl)-1H-indol-5-yl)amino)benzoic acid]
inhibition at 1 µM [1]: ≥ 50%
pIC50 [2]: ≥ 8.00

O=C(O)c1cc(C2CC2)ccc1Nc1ccc2c(c1)CC(=O)N2CC1CC1 [Example 108, 5-cyclopropyl-2-((1-(cyclopropylmethyl)-2-oxoindolin-5-yl)amino)benzoic acid]
inhibition at 1 µM [1]: ≥ 50%
pIC50 [2]: 7.00 to 8.00

O=C(O)c1cc(C2CC2)ccc1Nc1ccc2c(c1)sc(=O)n2Cc1ccccc1 [Example 73, 2-((3-benzyl-2-oxo-2,3-dihydrobenzo[d]thiazol-6-yl)amino)-5-cyclopropylbenzoic acid]
inhibition at 1 µM [1]: ≥ 50%
pIC50 [2]: ≥ 8.00

O=C(O)c1cc(Cl)ccc1Nc1ccc2c(ccn2-c2ccccc2F)c1 [Example 335, 5-chloro-2-((1-(2-fluorophenyl)-1H-indol-5-yl)amino)benzoic acid]
inhibition at 1 µM [1]: ≥ 50%
pIC50 [2]: ≥ 8.00

O=C(O)c1cc(Cl)ccc1Nc1ccc2c(ccn2CC2CC2)c1 [Example 96, 5-chloro-2-((1-(cyclopropylmethyl)-1H-indol-5-yl)amino)benzoic acid]
inhibition at 1 µM [1]: ≥ 50%
pIC50 [2]: 7.00 to 8.00

COc1ccc(-n2ccc3cc(Nc4ccc(C5CC5)cc4C(=O)O)ccc32)cc1 [Example 373, 5-cyclopropyl-2-((1-(4-methoxyphenyl)-1H-indol-5-yl)amino)benzoic acid]
inhibition at 1 µM [1]: ≥ 50%
pIC50 [2]: ≥ 8.00

O=C(O)c1cc(Cl)ccc1Nc1ccc2c(c1)CN(c1ccccc1)C2=O [Example 281, 5-chloro-2-((1-oxo-2-phenylisoindolin-5-yl)amino)benzoic acid]
inhibition at 1 µM [1]: ≥ 50%
pIC50 [2]: 6.00 to 7.00

O=C(O)c1cc(Cl)ccc1Nc1ccc2c(ccn2Cc2cccc(OC(F)(F)F)c2)c1 [Example 363, 5-chloro-2-((1-(3-(trifluoromethoxy)benzyl)-1H-indol-5-yl)amino)benzoic acid]
inhibition at 1 µM [1]: ≥ 50%
pIC50 [2]: ≥ 8.00

O=C(O)c1cc(Cl)cnc1Nc1ccc2c(ccn2Cc2cccc(OCC(F)(F)F)c2)c1 [Example 357, 5-chloro-2-((1-(3-(2,2,2-trifluoroethoxyl)benzyl)-1H-indol-5-yl)amino)nicotinic acid]
inhibition at 1 µM [1]: ≥ 50%
pIC50 [2]: 7.00 to 8.00

O=C(O)c1cc(Cl)ccc1Nc1ccc2c(ccn2Cc2cccc(OCC(F)(F)F)c2)c1 [Example 84, 5-chloro-2-((1-(3-(2,2,2-trifluoroethoxyl)benzyl)-1H-indol-5-yl)amino)benzoic acid]
inhibition at 1 µM [1]: ≥ 50%
pIC50 [2]: ≥ 8.00

O=C(O)c1cc(C2CC2)ccc1Nc1ccc2c(c1)n(CC(F)(F)F)c(=O)n2-c1ccccc1 [Example 80, 5-cyclopropyl-2-((2-oxo-1-phenyl-3-(2,2,2-trifluoroethyl)-2,3-dihydro-1H-benzo[d]imidazol-5-yl)amino)benzoic acid]
inhibition at 1 µM [1]: ≥ 50%
pIC50 [2]: 7.00 to 8.00

O=C(O)c1cc(C2CC2)ccc1Nc1ccc2c(ccn2Cc2ccc(N3CCCCC3)cc2)c1 [Example 194, 5-cyclopropyl-2-((1-(4-(piperidin-1-yl)benzyl)-1H-indol-5-yl)amino)benzoic acid]
inhibition at 1 µM [1]: ≥ 50%
pIC50 [2]: ≥ 8.00

O=C(O)c1cc(Cl)ccc1Nc1ccc2c(c1)oc(=O)n2Cc1ccccc1 [Example 61, 2-((3-benzyl-2-oxo-2,3-dihydrobenzo[d]oxazol-6-yl)amino)-5-chlorobenzoic acid]
inhibition at 1 µM [1]: ≥ 50%
pIC50 [2]: 7.00 to 8.00

O=C(O)c1cc(Cl)ccc1Nc1cnc2c(ccn2Cc2ccccc2)c1 [Example 11, 2-((1-benzyl-1H-pyrrolo(2,3-b)pyridin-5-yl)amino)-5-chlorobenzoic acid]
inhibition at 1 µM [1]: ≥ 50%
pIC50 [2]: 7.00 to 8.00

CN(C)c1ccc(Cn2ccc3cc(Nc4ccc(C5CC5)cc4C(=O)O)ccc32)cc1 [Example 198, 5-cyclopropyl-2-((1-(4-(dimethylamino)benzyl)-1H-indol-5-yl)amino)benzoic acid]
inhibition at 1 µM [1]: ≥ 50%
pIC50 [2]: ≥ 8.00

O=C(O)c1cc(C2CC2)ccc1Nc1ccc2c(ccn2Cc2ccc(N3CCOCC3)cc2)c1 [Example 196, 5-cyclopropyl-2-((1-(4-morpholinobenzyl)-1H-indol-5-yl)amino)benzoic acid]
inhibition at 1 µM [1]: ≥ 50%
pIC50 [2]: 7.00 to 8.00

O=C(O)c1cc(Cl)ccc1Nc1ccc2c(c1)[nH]c(=O)n2Cc1ccccc1 [Example 63, 2-((1-benzyl-2-oxo-2,3-dihydro-1H-benzo[d]imidazol-5-yl)amino)-5-chlorobenzoic acid]
inhibition at 1 µM [1]: ≥ 50%

O=C(O)c1cc(Cl)ccc1Nc1ccc2c(c1)CCC(=O)N2Cc1ccccc1 [Example 267, 2-((1-benzyl-2-oxo-1,2,3,4-tetrahydroquinolin-6-yl)amino)-5-chlorobenzoic acid]
inhibition at 1 µM [1]: ≥ 50%

O=C(O)c1cc(C2CC2)ccc1Nc1ccc2c(c1)CN(Cc1ccccc1)C2=O [Example 287, 2-((2-benzyl-1-oxoisoindolin-5-yl)amino)-5-cyclopropylbenzoic acid]
inhibition at 1 µM [1]: ≥ 50%
